Like-named read-outs stand apart in the source and are kept apart here. Ends that are not written are not given here.
How the values were obtained:
[1] = literature value, cited from earlier work
[2] = literature value, cited from earlier work; remark: listed apart in the source
[3] = Heme binding to the constructs; settings: two-heme variants, read-out: heme binding affinities
[4] = O2 binding kinetics and oxy-ferrous heme formation/stability (stopped-flow; low-temperature CO/O2 ligand exchange); settings: for O2 binding / oxy-ferrous heme formation (in words): reduced (ferrous) heme protein with O2; for oxy-ferrous heme yield: −15° C., exposed to CO, then illuminated to exchange ligand for O2; for stabilization of the oxy-ferrous heme: effect of loop configuration
Procedure: (§1) Predominantly mono-exponential binding kinetics of O2 and CO with the ferrous heme B in Construct 6 were followed spectroscopically in rapid stopped-flow mixing over gas concentrations from 2% to 50% saturation at 15° C. using an Olis RSM 1000 spectrometer (Bogart, Ga.) that scans both the alpha band and Soret band absorptions 1,000 times a second, followed by SVD analysis of the kinetic components. The dissociation rate of the CO complex was determined by competition with ferricyanide using a range of ferricyanide concentrations according to the ferric heme trapping method described previously.
Preparations of ferrous heme synthetic proteins in CO saturated 30% ethylene glycol borate buffer at pH 9.0 were stable to ligand exchange on a timescale of several minutes in the dark at −15° C. This allowed spectra such as those shown in FIG. 2 to be prepared by re-equilibration with O2 or O2/CO gas mixtures, followed by photolysis by halogen lamp illumination for several seconds to initiate rapid O2 binding, as described previously.
In fact, none of the artificial hemes proteins examined above were able to bind this gas stably at room temperature. […] Constructs 2, 3, 4 and 5 all include the glutamate-based helical strain, which weakens the histidine ligation and allows competition from other ligands. By first exposing these heme proteins to CO and then illuminating at a low temperature to initiate ligand exchange for O2, as was done previously with cytochrome oxidase, each formed an oxy-ferrous heme at near 100% yield at −15° C. The probable reason for room temperature instability was the access of water and protons to the heme-binding site, which facilitates electron transfer from ferrous heme to oxygen. This is clear from mutant studies of globins and the relative stability of the oxy-ferrous heme in chemical systems in water-free solvents.

[5] = Hydrogen isotope (H/D) exchange protection by NMR; type: physicochemical; settings: pH 7 and 25° C.
From the text: To engineer water exclusion, the potentially culpable protein motion was constrained. […] Indeed, Construct 2 could be modified to introduce large-scale syn-anti flipping. To constrain motion, the loops were reconfigured to link the helices across the most mobile interface. This also allowed the loops to be linked into a monomeric “candelabra” structure, further constraining motion (Construct 6 in FIG. 1). NMR confirmed the water-restricting effects of loop reconfiguration and monomerization. Hydrogen isotope (H/D) analysis of hydrogen exchange protection factors of Constructs 4 and 6 at pH 7 and 25° C.

[6] = literature value; cited from earlier work
[7] = heme B, cited from earlier work
[8] = Potentiometric titration (oxidation-reduction midpoint potential); type: physicochemical
[9] = CO binding and release kinetics (stopped-flow mixing, flash photolysis, ferricyanide competition); settings: stopped-flow with CO
Procedure: as §1
CO rebinding after photolysis by a frequency-doubled YAG laser at 532 nm, with a ˜1-ns pulse width (FIG. 3C), was multi-exponential, a characteristic signature of human neuroglobins. Detailed analysis of time-resolved spectra in the flash experiments was consistent with a rapid exponential phase due to a change in pentacoordinate heme conformation (FIG. 3B), similar to that reported for myoglobin [46]. […]
Saturation of the observed CO binding rate allowed estimates of the opening and closing rates. […] Table 1 presents the kinetic constants (also shown in FIG. 3A) and equilibrium binding constants that have been determined for Construct 6 and contrasts them with several natural oxygen-binding proteins. […]

[10] = not in parentheses, read-out: KdCO
[11] = not in parentheses, read-out: KdO2

Ascaris haemoglobin
kCO off [1]: 0.018 s⁻¹
kCO on ([1]; not in parentheses): 200000 M⁻¹ s⁻¹
Kd [1, 10]: 90 nM
kO2 off [2]: 0.004 s⁻¹
KdO2/KdCO ([2]; not in parentheses): 0.03
kO2 on ([2]; not in parentheses): 1.5e+06 M⁻¹ s⁻¹
Kd [2, 11]: 3 nM

CGGGEIWKQFEEALKKLFAFFFILPFIIMAIAMVHLLFLFGEGL [Construct 15, AP6 with histidines at positions 10 and 21 mutated to phenylalanine]
Kd ([3]; tighter site): 100 nM
Kd ([3]; weaker site): 4500 nM

CGGGEIWKQFEEALKKLFAFHFILPFIIMAIAMVFLLFLFGEGL [Construct 14, AP6 with histidines at positions 10 and 35 mutated to phenylalanine]
Kd ([3]; tighter site): 200 to 500 nM
Kd ([3]; weaker site): 1000 to 3000 nM

CGGGEIWKQHEEALKKLFAFFFILPFIIMAIAMVFLLFLFGEGL [Construct 13]
Kd ([3]; tighter site): 50 to 200 nM
Kd ([3]; weaker site): 1000 to 4000 nM
O2 binding / oxy-ferrous heme formation (in words) [4]: able to bind O2

Construct 2: cystine derivative of SEQ ID NO:6 (CGGGELWKLHEELLKKFEELLKLHEERLKKL; also: cystine derivative)
O2 binding / oxy-ferrous heme formation (in words) [4]: proceeded directly and rapidly to the oxidized form
oxy-ferrous heme yield [4]: ~100%

Construct 3: cystine derivative of SEQ ID NO:7 (CGGGEIWKLHEEFLKKFEELLKLHEERLKKL; also: cystine derivative)
oxy-ferrous heme yield [4]: ~100%

Construct 4: cystine derivative of SEQ ID NO:8 (CGGGEIWKQHEEALKKFEEALKQFEELKKL; also: cystine derivative)
time to complete water-mediated proton exchange [5]: ≤ 15 min
oxy-ferrous heme yield [4]: ~100%

Construct 5: cystine derivative of SEQ ID NO:9 (CGGGEIWKQHEDALQKFEDALNQFEELKQL; also: cystine derivative)
stabilization of the oxy-ferrous heme [4]: not to be stabilized
oxy-ferrous heme yield [4]: ~100%

Human haemoglobin
kCO off [1]: 0.009 s⁻¹
kCO on ([1]; not in parentheses): 2.2e+06 M⁻¹ s⁻¹
Kd [1, 10]: 4 nM
kO2 off [2]: 15 s⁻¹
KdO2/KdCO ([2]; not in parentheses): 190
kO2 on ([2]; not in parentheses): 1.9e+07 M⁻¹ s⁻¹
Kd [2, 11]: 770 nM

Micro-peroxidase
kCO off [1]: 0.01 s⁻¹
kCO on ([1]; not in parentheses): 2e+07 M⁻¹ s⁻¹
Kd [1, 10]: 0.5 nM

Myoglobin
kCO off [1]: 0.019 s⁻¹
kCO on ([1]; not in parentheses): 500000 M⁻¹ s⁻¹
Kd [1, 10]: 37 nM
kO2 off [2]: 12 s⁻¹
KdO2/KdCO ([2]; not in parentheses): 23
kO2 on ([2]; not in parentheses): 1.4e+07 M⁻¹ s⁻¹
Kd [2, 11]: 860 nM

B1: Neuroglobin (protein, UniProt Q9NPG2 1-151, looked up)
Neuroglobin: MERPEPELIRQSWRAVSRSPLEHGTVLFARLFALEPDLLPLFQYNCRQFSSPEDCLSSPEFLDHIRKVMLVIDAAVTNVEDLSSLEEYLASLGRKHRAVGVKLSSFSTVGESLLYMLEKCLGPAFTPATRAAWSQLYGAVVQAMSRGWDGE
kHis off [6]: 4.5 s⁻¹
kHis on [6]: 2,000 s^−1
kCO off [1]: 0.014 s⁻¹
kCO on (apparent) ([1]; in parentheses: apparent): (0.15) μM^−1s^−1
Kd ([1]; in parentheses: apparent, read-out: KdCO (apparent)): 93 nM
kCO on ([1]; not in parentheses): 6.5e+07 M⁻¹ s⁻¹
Kd [1, 10]: 0.21 nM
kO2 off [2]: 0.8 s⁻¹
KdO2/KdCO (apparent) ([2]; in parentheses: apparent): (15)
kO2 on (apparent) ([2]; in parentheses: apparent): (0.56) μM^−1s^−1
Kd ([2]; in parentheses: apparent, read-out: KdO2 (apparent)): 1400 nM
kO2 on ([2]; not in parentheses): 2.5e+08 M⁻¹ s⁻¹
Kd [2, 11]: 3.2 nM

B2: Construct 6: cystine derivative of SEQ ID NO:1; four-helix bundle oxygen transport protein (protein)
chain: GEIWKQHEDALQKFEEALNQFEDLKQLGGSGCGSGGEIWKQHEDALQKFEEALNQFEDLKQL
modifications: cystine derivative
notes: four-helix bundle oxygen transport protein
Kd ([7]; first heme, read-out: dissociation constant (Kd) for binding of the first heme): < 1 nM
Kd ([7]; second heme, read-out: dissociation constant (Kd) for binding of the second heme): 50 nM
oxidation-reduction midpoint potential at pH 8 (Em8) ([8]; bound heme A, pH 8, versus normal hydrogen electrode (NHE)): −100 mV
Em8 of bound heme A more positive than heme B ([8]; heme A versus heme B): about 200 mV
timescale of exchange of core residue backbone amides [5]: several hours
O2 on-rate compared with human neuroglobin [4]: ~100 times slower
net discrimination favoring O2 binding over CO binding [4]: tenfold
stabilization of the oxy-ferrous heme [4]: stabilized by looping together helices not linked by heme
persistence of oxy-ferrous heme A before electron transfer ([4]; heme A): about half a minute
duration of stability of the oxy-ferrous state ([4]; heme B, before electron transfer from ferrous heme to O2): tens of seconds
O2 binding / oxy-ferrous heme formation (in words) [4]: transformation of the reduced heme to the oxy-ferrous state
half time of carboxy-ferrous heme formation [9]: 400 ms
stability of carboxy-ferrous heme species [9]: indefinitely stable

B3: Construct 7: SEQ ID NO:11; single chain four-helix bundle peptide (protein)
chain: GMTPEQIWKQHEDALQKFEDALNQFEELKQLGGSGSGSGGEIWKQHEDALQKFEDALNQFEELKQLGGSGGSGGSGGEIWKQHEDALQKFEDALNQFEELKQLGGSGSGSGGEIWKQHEDALQKFEDALNQFEELKQL
O2 binding / oxy-ferrous heme formation (in words) [4]: retained the O2 binding functionality of Construct 6

B4: Construct 10: SEQ ID NO:14; single chain four-helix bundle with CXXCH insert, covalently bound heme C (protein)
chain: GMTPEQIWKQHEDALQKFEDALNQFEELKQLGGSGSGSGGEICKCHEDALQKFEDALNQFEELKQLGGSGGSGGSGGEIWKQHEDALQKFEDALNQFEELKQLGGSGSGSGGEIWKQHEDALQKFEDALNQFEELKQL
modifications: covalently bound heme C
Em (midpoint potential) ([8]; covalently bound c-type heme, pH 9): −232 mV
O2 binding / oxy-ferrous heme formation (in words) [4]: bound molecular oxygen
